US20140314747A1, “PREDICTING RESPONSE TO EGFR INHIBITORS” (Genentech, Inc., priority 2013, published 2014)

Key:
Format in all cases: cell-based, mouse
[1] = system: mesenchyme free lung explants (lung epithelium in Matrigel); experiment: mesenchyme-free lung explant culture, growth and branching
Description: (§1) Pancreas and individual lobes of the lungs were dissected from embryos harvested from timed pregnancy setups. Embryonic explants were cultured on 12 mm Transwell® with 0.4 μm polyester membrane insert (Corning, Tewsbury, Mass.) at the air-liquid interface in DME media with 10% fetal calf serum, glutamine and penicillin-streptomycin. For longer-term cultures (>3 days), media was changed daily.
For mesenchyme-free cultures, lungs were dissected and incubated in Collagenase/Dispase (1 mg/ml for each) for 10-15 minutes at room temperature. Epithelial tissue was removed by mechanical dissection, transferred to the Transwell® plates, and covered with 5-10 μl of 1:1 Matrigel:DME. After Matrigel was solidified, 400 μl media (DME/10% FCS/glutamine/pen-strep+200 ng/ml FGF7 (Life Technologies, Carlsbad, Calif.), FGF1 (Life Technologies), or EGF (Life Technologies)) was added to top and bottom wells. Erlotinib (Tarceva®, 1 μM hydrochloride salt; OSI Pharmaceuticals) or DMSO was added as indicated.
(§2) Embryonic explants were fixed in 4% paraformaldehyde, permeabilized in PBS with 2% BSA, 0.1% saponin or 0.1% Triton-X100. After washing, tissues were stained with anti-E-cadherin (Santa Cruz). Explants were mounted and imaged with a Leica SP5 laser confocal microscope. Images shown are representative of multiple independent experiments (n≧5) with littermate explants that were cultured, stained and imaged under substantially the same conditions and settings.
(§3) Homozygous germline mutations in LKB1 in mice are early embryonic lethal. […] This allele (Lkb1^MG) was “knocked-in” to the endogenous LKB1 locus to generate a genetically engineered mouse line that has been described in detail elsewhere (Lo et al., 2012, J. Cell. Biol., 199: 1117-1130). Lung and pancreas tissues from Lkb1^MG/MG embryos and wild-type littermates were dissected and grown in vitro for several days. Lung cultures were grown both as whole mount explants, and “mesenchyme-free” where most of the mesenchyme and other tissue types were stripped from the lung epithelium and the epithelium was cultured in Matrigel (Lu et al., 2005, J. Biol. Chem., 280: 4834-4841). During this time, the response of these tissues to growth factors was assessed.

[2] = system: whole mount lung explants; experiment: whole mount lung explant culture, growth; settings: for size of terminal buds: addition of EGF
Description: as §1, §2, §3

pancreatic explants = experiment: pancreatic explant culture, cyst formation
Description: as §1, §2, §3

FGF-1: fibroblast growth factor (FGF)-1 (Life Technologies)
growth of mesenchyme free lung cultures ([1]; both LKB1 wt/wt and LKB1 MG/MG, presence and absence of NMPP1): robust growth

EGF: epidermal growth factor (Life Technologies) added to explant media (NSDSECPLSHDGYCLHDGVCMYIEALDKYACNCVVGYIGERCQYRDLKWWELR; UniProt P01133 971-1023, looked up)
growth ([1]; Lkb1 MG/MG explants, EGF 100 ng/ml in the presence of NMPP1): substantial growth | growth compared to no growth factor ([1]; Lkb1 wt/wt explants, EGF 100 ng/ml in the presence of NMPP1): modest increase in growth | size of terminal buds ([2]; LKB1 wt/wt lungs): only a modest increase in size | size of terminal buds ([2]; Lkb1 MG/MG lungs): substantial enlargement of the terminal buds | development of the cystic phenotype (pancreatic explants; EGF 100 ng/ml, with Lkb1 inhibition): accelerates the development of the cystic phenotype | cyst formation (pancreatic explants; EGF, in the absence of Lkb1 inhibition): does not by itself promote cysts

C#Cc1cccc(Nc2ncnc3cc(OCCOC)c(OCCOC)cc23)c1 [erlotinib]
effect on EGF-induced growth ([1]; mesenchyme free cultures, erlotinib 1 μM, EGF + NMPP1): inhibited | effect on EGF-induced growth ([2]; whole mount cultures, erlotinib 1 μM, EGF + NMPP1): inhibited | effect on development of the cystic phenotype (pancreatic explants; erlotinib 1 μM, Lkb1 inhibition (NMPP1) with EGF): inhibits the development of the cystic phenotype
